The values that follow come from PubChem BioAssay (NCI).

“And” between values parts separate entries of the source, which are not always exact repeats. Equal entries are not always repeated.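 Growth conditions: 96-well plates. Treatment: test compound, 48 hours, 5 concentrations. Analysis: linear interpolation between bracketing concentrations; unreached endpoints set to highest concentration. The concentration for 50% growth inhibition is given as GI50. TGI marks complete inhibition of growth.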 A value given as a limit tells only on which side of the number the result lay.

The test system of one experiment is K-562 leukemia. Kind of experiment: NCI-60 cell line screen, 48 h.
Take `O=C1c2ccccc2-c2c1c1c(NCCCO)nc3ccccc3c1n2Cc1ccccc1`: the GI50 is 15.5 µM and the TGI amounted to 28.8 µM.
In turn, `CCCCCCCCCCCCCCCCCCOCC(COCCOCC[N+]1(CCCCCC(=O)[O-])CCCC1)Oc1ncccn1` (centres undefined) came in with a TGI of 14.2 µM.
On to `CCOc1ccc(Nc2c3ccccc3nc3ccccc23)cc1`, for which the GI50 is 0.316 µM and 0.0616 µM.
For `CCNCCNc1cc(-c2ccc(C#N)cc2)c(C#N)c2nc3ccccc3n12`, the GI50 is 3.13 µM and the TGI amounted to 18.2 µM.
On to `[2H]c1nc(=Nc2cc(NC(=O)C=C)c(N(C)CCN(C)C)cc2OC)[nH]c(-c2cn(C([2H])([2H])[2H])c3ccccc23)c1[2H]`, for which the GI50 was 1.29 µM and the TGI stood at 3.78 µM.
In the case of `COc1cc2nc(-c3ccc(C(F)(F)F)cc3)cc(OCCCN3CCCC3)c2cc1OC`, the GI50 was 0.445 µM and the TGI is 4.54 µM.
For `COc1ccc(C(=O)c2nc3ccccc3n2CC(=O)c2ccc(Cl)cc2)cc1`, the GI50 was 0.585 µM and the TGI was greater than 100 µM.
Consider `O=C(NCCN1CCNCC1)c1ccc(Nc2nc3ccccc3c3occc23)cc1`, for which the GI50 was 14.4 µM and the TGI came out at 40.1 µM.
As to `OCc1ccc(N2CCOCC2)cc1Cl`, the GI50 is greater than 100 µM and the TGI is greater than 100 µM.

The next experiment deals with SR leukemia. Description: NCI-60 cell line screen, 48 h.
In the case of `Fc1ccc2nc(-c3cc(-c4ccc5c(c4)OCO5)n[nH]3)[nH]c2c1`, the GI50 is 3.58 µM and the TGI was greater than 100 µM.
Turning to `O=C(c1cccs1)C1NO[N+]([O-])=C1c1cccs1` (centres undefined), the GI50 was 2.08 µM and the TGI is 4.73 µM.
As to `COc1ccc(C2=C(N3CCc4ccccc43)C(=O)NC2=O)cc1`, the GI50 was 13.7 µM and the TGI was greater than 25 µM.
On to `Cc1cc2c(cc1Cl)S/C(=C/C(=O)O)C(Nc1cccc3nsnc13)=NS2(=O)=O`, for which the GI50 was 32.8 µM and the TGI is greater than 100 µM.
Regarding `COc1ccc(F)c(F)c1C(=O)c1cnc(NC2CCN(S(C)(=O)=O)CC2)nc1N`, the GI50 is 0.188 µM and 0.114 µM.
`Nc1cc(-c2ccc(Cl)cc2)nn1-c1nnc(/C=C/c2ccco2)c(=O)[nH]1`: the GI50 was 2.53 µM and the TGI was greater than 100 µM.
Regarding `Cc1c(C)c(CC(=O)N2CC2)c(C)c(C)c1CC(=O)N1CC1`, the TGI stood at 4.79 µM.
`O=C1c2ccccc2-c2c1c1c(NCCCO)nc3ccccc3c1n2Cc1ccccc1`: the GI50 is 6.04 µM and the TGI came to 24.1 µM.
Regarding `CCCCCCCCCCCCCCCCCCOCC(COCCOCC[N+]1(CCCCCC(=O)[O-])CCCC1)Oc1ncccn1` (centres undefined), the TGI is 37.1 µM.
Turning to `CCOc1ccc(Nc2c3ccccc3nc3ccccc23)cc1`, the GI50 was 0.307 µM and 0.042 µM; the TGI was 6.89 µM and 1.11 µM.
In the case of `CCNCCNc1cc(-c2ccc(C#N)cc2)c(C#N)c2nc3ccccc3n12`, the GI50 is 2.59 µM and the TGI is 6.74 µM.
On to `[2H]c1nc(=Nc2cc(NC(=O)C=C)c(N(C)CCN(C)C)cc2OC)[nH]c(-c2cn(C([2H])([2H])[2H])c3ccccc23)c1[2H]`, for which the GI50 is 1.23 µM and the TGI was determined as 4.02 µM.
Turning to `COc1cc2nc(-c3ccc(C(F)(F)F)cc3)cc(OCCCN3CCCC3)c2cc1OC`, the GI50 is 0.207 µM.
`COc1ccc(C(=O)c2nc3ccccc3n2CC(=O)c2ccc(Cl)cc2)cc1`: the GI50 was 0.569 µM.
Regarding `O=C(NCCN1CCNCC1)c1ccc(Nc2nc3ccccc3c3occc23)cc1`, the GI50 is 25 µM and the TGI was determined as 43.8 µM.
In the case of `OCc1ccc(N2CCOCC2)cc1Cl`, the GI50 was greater than 100 µM and the TGI was greater than 100 µM.

A further experiment relates to MDA-MB-231 breast. Description: NCI-60 cell line screen, 48 h.
`Fc1ccc2nc(-c3cc(-c4ccc5c(c4)OCO5)n[nH]3)[nH]c2c1`: the GI50 is 2.01 µM and the TGI turned out to be 6.59 µM.
On the same counts, the results for `O=C(c1cccs1)C1NO[N+]([O-])=C1c1cccs1` (centres undefined) are 11.8 µM and 25 µM.
As to `COc1ccc(C2=C(N3CCc4ccccc43)C(=O)NC2=O)cc1`, the GI50 was greater than 22.4 µM and the TGI was greater than 25 µM.
On to `Cc1cc2c(cc1Cl)S/C(=C/C(=O)O)C(Nc1cccc3nsnc13)=NS2(=O)=O`, for which the GI50 is 47.4 µM and the TGI was greater than 69.4 µM.
In the case of `COc1ccc(F)c(F)c1C(=O)c1cnc(NC2CCN(S(C)(=O)=O)CC2)nc1N`, the GI50 was 0.805 µM and 0.262 µM.
As to `Nc1cc(-c2ccc(Cl)cc2)nn1-c1nnc(/C=C/c2ccco2)c(=O)[nH]1`, the GI50 is 11.2 µM and the TGI was greater than 100 µM.
`Cc1c(C)c(CC(=O)N2CC2)c(C)c(C)c1CC(=O)N1CC1` registered a TGI of 48.1 µM.
In the case of `O=C1c2ccccc2-c2c1c1c(NCCCO)nc3ccccc3c1n2Cc1ccccc1`, the GI50 was 20.7 µM and the TGI came to 42.7 µM.
`CCCCCCCCCCCCCCCCCCOCC(COCCOCC[N+]1(CCCCCC(=O)[O-])CCCC1)Oc1ncccn1` (centres undefined) had a TGI of 21.7 µM.
Turning to `CCOc1ccc(Nc2c3ccccc3nc3ccccc23)cc1`, the GI50 is 1.91 µM and 0.959 µM; the TGI is 9.67 µM and 14.5 µM.
On to `CCNCCNc1cc(-c2ccc(C#N)cc2)c(C#N)c2nc3ccccc3n12`, for which the GI50 was 2.35 µM and the TGI came to 5.61 µM.
For `[2H]c1nc(=Nc2cc(NC(=O)C=C)c(N(C)CCN(C)C)cc2OC)[nH]c(-c2cn(C([2H])([2H])[2H])c3ccccc23)c1[2H]`, the GI50 was 1.27 µM and the TGI is 2.81 µM.
In the case of `COc1cc2nc(-c3ccc(C(F)(F)F)cc3)cc(OCCCN3CCCC3)c2cc1OC`, the GI50 was 0.532 µM and the TGI was 8.23 µM.
Consider `COc1ccc(C(=O)c2nc3ccccc3n2CC(=O)c2ccc(Cl)cc2)cc1`, for which the GI50 was 15.6 µM and the TGI is greater than 100 µM.
As to `O=C(NCCN1CCNCC1)c1ccc(Nc2nc3ccccc3c3occc23)cc1`, the GI50 is 11.8 µM and the TGI is 25.8 µM.
With `OCc1ccc(N2CCOCC2)cc1Cl`, the GI50 is greater than 100 µM and the TGI is greater than 100 µM.

A further experiment has as its system 786-0 renal. Kind of experiment: NCI-60 cell line screen, 48 h.
For `Fc1ccc2nc(-c3cc(-c4ccc5c(c4)OCO5)n[nH]3)[nH]c2c1`, the GI50 is 5.89 µM and the TGI was greater than 80 µM.
